Publication PMC12728982, “Multichiral Half-Sandwich Ru(II) and Os(II) Anticancer Complexes Containing a Glutathione Synthesis Inhibitor” (Organometallics, 2025)

Key:
[1] = Aqueous stability / hydrolysis monitored by 1H NMR; assay type: physicochemical; conditions: 3:7 v/v methanol-d4:D2O, 310 K, 36 h, then excess NaCl (130 mM) 24 h
[2] = tested on: IGROV-1 human ovarian cancer cells; test: Cell cycle arrest by flow cytometry (PI); assay type: cell-based; conditions: IGROV-1, 100 μM, 24 h treatment, vs untreated
Experimental: 2 Effect of Os/Ru-LBSO and glycine complexes at 50 or 100 μM on the phases of the cell cycle of IGROV-1 human ovarian cancer cells compared with untreated (control) cells. Percentage of cells in G1 (black bar, cell growth), S (gray, DNA synthesis), G2/M, (white, growth/mitosis) as determined by flow cytometry after 24 h treatment with complexes. […] Standard deviations calculated for N = 3 *p-value <0.05 comparing to untreated sample.
2.8 Mammalian cell culture
The human ovarian cancer cell line, IGROV-1; the human cervical cancer cell line, HeLa; the human […]; and the human non-cancerous lung fibroblast cell line, MRC5 were cultured in DMEM supplemented with 10% FBS and 100 units/mL of penicillin and 100 µg/mL of streptomycin (1x pen/strep). All cell lines were incubated at 310 K with 5% CO2 and 95% humidity for routine maintenance and during drug treatment. […]
IGROV-1 cells (1 x 10^6 cells per well) were seeded in a 6-well plate and incubated for 24 h at 310 K. Stock solutions (200 µM) of the complexes were prepared by dissolving the compound in 5% (v/v) DMSO followed by dilution with DMEM and then diluted to desired concentrations. All complexes (50 µM and 100 µM) were added to the wells and incubated for 24 h. Cell pellets were collected using 0.25% trypsin and centrifuged (500 x g, 5 mins at 4 °C). Then washed in PBS and fixed with 100% ice-cold ethanol for 20 min on ice. The ethanol […]
was aspirated, cells washed in ice-cold PBS and then stained with 0.2 mg/mL RNase, 0.05 mg/mL propidium iodide (PI) in PBS for 25 min in the dark and on ice. Excess dye was removed, and cells were re-suspended in PBS. Samples were analysed by flow cytometry using the BD

Hydrolysis [1]: does not readily hydrolyze
Substance: [(p-cymene)Os(L-BSO)Cl] [Os-LBSO]
G1 arrest (percentage of cells in G1) [2]: significantly increased
